# Laboratory results as given in ChEMBL document CHEMBL1153668, “3-Pyridines as replacements for an isoxazole ring: The antirhinoviral activity of pyridine analogues related to disoxaril” (Bioorg Med Chem Lett, 1995).
# Activity calls are given as the source filed them. The calls are words filed in the database; no cut-off is given here.
# Assays:
# [1] = Partition coefficient (logP); assay type: physicochemical; settings: octanol/water
# Human rhinovirus sp. [2] = test: Antirhinoviral activity against Human Rhinovirus serotypes R1A, R1B, R2, R6, R14, R15, R21, R22, R25, R30, R41, R50, R67, R86 and R89; Inactive against HRV-86; assay type: functional, organism-based
# Human rhinovirus sp. [3] = test: Antirhinoviral activity against Human Rhinovirus serotypes R1A, R1B, R2, R6, R14, R15, R21, R22, R25, R30, R41, R50, R67, R86 and R89.; assay type: functional
# Human rhinovirus sp. [4] = test: Antirhinoviral activity against Human Rhinovirus serotypes R1A, R1B, R2, R6, R14, R15, R21, R22, R25, R30, R41, R50, R67, R86 and R89; assay type: functional
# Human rhinovirus sp. [5] = test: Antirhinoviral activity against Human Rhinovirus R2; assay type: functional
# Human rhinovirus sp. [6] = test: Antirhinoviral activity against Human Rhinovirus R1A; assay type: functional
# Human rhinovirus sp. [7] = test: Antirhinoviral activity against Human Rhinovirus R14; assay type: functional
# Human rhinovirus sp. [8] = test: Antirhinoviral activity against Human Rhinovirus R86; assay type: functional
# Human rhinovirus sp. [9] = test: Antirhinoviral activity against Human Rhinovirus R67; assay type: functional
# Human rhinovirus sp. [10] = test: Antirhinoviral activity against Human Rhinovirus R30; assay type: functional
# Human rhinovirus sp. [11] = test: Antirhinoviral activity against Human Rhinovirus R50; assay type: functional
# Human rhinovirus sp. [12] = test: Antirhinoviral activity against Human Rhinovirus R15; assay type: functional
# Human rhinovirus sp. [13] = test: Antirhinoviral activity against Human Rhinovirus R21; assay type: functional
# Human rhinovirus sp. [14] = test: Antirhinoviral activity against Human Rhinovirus R6; assay type: functional
# Human rhinovirus sp. [15] = test: Antirhinoviral activity against Human Rhinovirus R1B; assay type: functional
# Human rhinovirus sp. [16] = test: Antirhinoviral activity against Human Rhinovirus R25; assay type: functional
# Human rhinovirus sp. [17] = test: Antirhinoviral activity against Human Rhinovirus R41; assay type: functional
# Human rhinovirus sp. [18] = test: Antirhinoviral activity against Human Rhinovirus R22; assay type: functional
# Human rhinovirus sp. [19] = test: Antirhinoviral activity against Human Rhinovirus R89; assay type: functional
# Human rhinovirus sp. [20] = test: Antirhinoviral activity against Human Rhinovirus R14; Not active; assay type: functional, organism-based
# Human rhinovirus sp. [21] = test: Antirhinoviral activity against Human Rhinovirus R41; Not active; assay type: functional, organism-based
# Human rhinovirus sp. [22] = test: Antirhinoviral activity against Human Rhinovirus R6; Not active; assay type: functional, organism-based
# Human rhinovirus sp. [23] = test: Antirhinoviral activity against Human Rhinovirus R86; Not active; assay type: functional, organism-based
# Human rhinovirus sp. [24] = test: Antirhinoviral activity against Human Rhinovirus serotypes R1A, R1B, R2, R6, R14, R15, R21, R22, R25, R30, R41, R50, R67, R86 and R89; Inactive against HRV-6, 14, 86; assay type: functional, organism-based
Structure (SMILES),logP [1],Mean activity (Human rhinovirus sp. [3]),MIC (Human rhinovirus sp. [5]),MIC (Human rhinovirus sp. [6]),MIC (Human rhinovirus sp. [7]),MIC (Human rhinovirus sp. [8]),MIC (Human rhinovirus sp. [9]),MIC (Human rhinovirus sp. [10]),MIC (Human rhinovirus sp. [11]),MIC (Human rhinovirus sp. [12]),MIC (Human rhinovirus sp. [13]),MIC (Human rhinovirus sp. [15]),MIC (Human rhinovirus sp. [16]),MIC (Human rhinovirus sp. [18]),MIC (Human rhinovirus sp. [19]),further results
Cc1noc(-c2cc(C)c(OCCCc3cccnc3)c(C)c2)n1,3.3,–,–,–,–,–,–,–,–,–,–,–,–,–,–,Mean activity (Human rhinovirus sp. [2]): inactive
Cc1ccc(CCCOc2c(C)cc(-c3nc(C)no3)cc2C)cn1,3.8,0.25 µM,–,–,–,–,–,–,–,–,–,–,–,–,–,–
Cc1cc(CCCOc2c(C)cc(-c3nc(C)no3)cc2C)on1,3.2,–,–,–,–,–,–,–,–,–,–,–,–,–,–,Mean activity (Human rhinovirus sp. [4]): 0.22 µM
Cc1ccc(CCCOc2c(C)cc(-c3nnn(C)n3)cc2C)cn1,–,0.54 µM,–,–,–,–,–,–,–,–,–,–,–,–,–,–
Cc1cc(CCCOc2c(C)cc(-c3nnn(C)n3)cc2C)on1,–,0.73 µM,–,–,–,–,–,–,–,–,–,–,–,–,–,–
Cc1cc(-c2nnn(C)n2)cc(C)c1OCCCCCc1cccnc1,–,–,0.2 µM,0.28 µM,1.05 µM,1.08 µM,0.37 µM,0.17 µM,2.28 µM,1.25 µM,0.03 µM,0.1 µM,0.04 µM,0.17 µM,0.03 µM,MIC (Human rhinovirus sp. [14]): 0.82 µM; MIC (Human rhinovirus sp. [17]): 2.16 µM
Cc1cc(CCCCCOc2c(C)cc(-c3nnn(C)n3)cc2C)on1,–,–,0.04 µM,0.42 µM,0.62 µM,0.84 µM,0.35 µM,0.11 µM,0.23 µM,0.77 µM,0.04 µM,0.1 µM,0.31 µM,0.08 µM,0.04 µM,MIC (Human rhinovirus sp. [14]): 0.98 µM; MIC (Human rhinovirus sp. [17]): 1.43 µM
Cc1cc(-c2nnn(C)n2)cc(C)c1OCCCCCc1ccncc1,–,–,0.26 µM,0.68 µM,–,0.43 µM,0.51 µM,0.36 µM,0.36 µM,2.13 µM,0.08 µM,0.27 µM,0.11 µM,0.2 µM,0.07 µM,MIC (Human rhinovirus sp. [20]): inactive; MIC (Human rhinovirus sp. [21]): inactive; MIC (Human rhinovirus sp. [22]): inactive
Cc1cc(-c2nnn(C)n2)cc(C)c1OCCCCCc1ccccn1,–,–,0.34 µM,0.66 µM,3.84 µM,–,1.19 µM,0.25 µM,0.36 µM,1.91 µM,0.05 µM,0.11 µM,0.08 µM,0.21 µM,0.06 µM,MIC (Human rhinovirus sp. [21]): inactive; MIC (Human rhinovirus sp. [23]): inactive; MIC (Human rhinovirus sp. [22]): inactive
Cc1cc(-c2nnn(C)n2)cc(C)c1OCCCc1cccnc1,–,–,–,–,–,–,–,–,–,–,–,–,–,–,–,Mean activity (Human rhinovirus sp. [24]): inactive
